From PubChem BioAssay AID1508591

conditions: rat; liver microsomes; pH 7.4; 15.0 min; 1.0 µM

Question: With `OC[C@H]1O[C@H](O[C@H]2O[C@H](CO)[C@@H](O)[C@H](O)[C@H]2O)[C@H](O)[C@@H](O)[C@@H]1O` as the molecule, how does the half-life read?
Answer: The half-life was over 30 min.

Question: Which half-life does the source give for `c1ccc(-c2cn[nH]c2)cc1` here?
Answer: Its half-life is 13.1 min.

Question: Which half-life does the source give for `Cc1ccc(S(=O)(=O)Nc2nc3ccc(C)cc3nc2Nc2ccc3c(c2)OCO3)cc1` here?
Answer: The half-life was over 30 min.

Question: With `Cc1cnc(N2CCC(C(N)=O)CC2)nc1-c1cccc(N(C)C)c1` as the molecule, how does the half-life read?
Answer: Its half-life is 8.45 min.

Question: Which half-life does the source give for `COC(=O)CSc1nc(-c2ccccc2)cc(-c2ccco2)c1C#N` here?
Answer: The half-life was 1 min.

Question: With `COc1ccc(C[C@@H]2C(=O)N[C@H](C)C(=O)N(C)[C@@H]3C(=O)N(C)[C@@H](Cc4ccc(O)c(c4)Oc4ccc(cc4)[C@H]3O)C(=O)N[C@@H](C)C(=O)N[C@H](C)C(=O)N2C)cc1` as the molecule, how does the half-life read?
Answer: Its half-life is 27.6 min.

Question: Which half-life does the source give for `CN(C)CCNC(=O)c1nc2nc(-c3ccccc3)c(-c3cccc(F)c3)cc2n1C` here?
Answer: The half-life was over 30 min.

Question: For `O=C(Nc1ncc(Cc2ccc(C(F)(F)F)cc2)s1)c1ncc(-c2ccccc2)[nH]1`, which half-life is on record?
Answer: The half-life was over 30 min.

Question: With `Clc1ccccc1Nc1nc(-c2ccncc2)nc2ccccc12` as the molecule, how does the half-life read?
Answer: Its half-life is 11 min.

Question: For `CC(C)CNc1ncnc2onc(-c3ccc(Cl)cc3)c12`, which half-life is on record?
Answer: The half-life was 12 min.

Question: Which half-life does the source give for `COc1ccc(-c2csc(N3CCC(C(N)=O)CC3)n2)cc1` here?
Answer: Its half-life is 4.68 min.

Question: For `CCN(CC)[S+](=O)([O-])c1cc(NC(=O)c2[nH]c(C)c(C(C)=O)c2C)ccc1OC`, which half-life is on record?
Answer: Its half-life is 4.7 min.

Question: For `CNC(=O)c1cc(Oc2ccc(NC(=O)Nc3cc(C(C)(C)C)nn3-c3ccc4ncccc4c3)c(F)c2)ccn1`, which half-life is on record?
Answer: The half-life was 6.64 min.

Question: For `Cc1ccc(/C=C/c2nc3ccccc3n2S(=O)(=O)c2cccc(Cl)c2)cc1`, which half-life is on record?
Answer: The half-life was 17.6 min.

Question: Which half-life does the source give for `CCOC(=O)c1nn(-c2ccc(OC)cc2)c(=O)c2c(N)scc12` here?
Answer: Its half-life is 9.52 min.

Question: With `Cc1nn2c(c1-c1ccccc1-c1ccccc1)N(CCC(C)C)CCC2` as the molecule, how does the half-life read?
Answer: The half-life was 1.31 min.

Question: Which half-life does the source give for `CCOc1ccc(CCNC(=O)c2cc3cnccc3n2Cc2cccc(C)c2)cc1OCC` here?
Answer: Its half-life is 6.9 min.

Question: For `Nc1ncnc2c1ncn2[C@H]1O[C@@H](CO)[C@@H](O)[C@H]1N`, which half-life is on record?
Answer: Its half-life is over 30 min.

Question: With `Cc1ccnc(NC(=S)N2CCN(c3cc(F)cc(Cl)c3)CC2)c1` as the molecule, how does the half-life read?
Answer: The half-life was 21 min.

Question: With `N=c1c2ccccc2nnn1-c1ccc(C(F)(F)F)cc1` as the molecule, how does the half-life read?
Answer: The half-life was over 30 min.

Question: With `Cc1[nH]c2ccccc2c1CN1CCN(c2ccccn2)CC1` as the molecule, how does the half-life read?
Answer: Its half-life is 1.7 min.

Question: With `Cc1cnc(-c2ccccc2C2COC2)nc1NCc1ccc(-n2ccnn2)cc1` as the molecule, how does the half-life read?
Answer: The half-life was over 30 min.

Question: Which half-life does the source give for `Cc1sc2c(c1C)C(c1ccc(Cl)cc1)=N[C@H](CC(=O)NCCCCNC(=O)COc1cccc3c1C(=O)N([C@H]1CCC(=O)NC1=O)C3=O)c1nnc(C)n1-2` here?
Answer: The half-life was 4.93 min.

Question: Which half-life does the source give for `COc1ccc(-c2cc(-c3cccc4[nH]ncc34)cn3cncc23)cn1` here?
Answer: Its half-life is 9.28 min.

Question: With `CCc1cccc(NC(=O)C(Cc2ccccc2)NS(=O)(=O)c2cccs2)c1` (stereo not given) as the molecule, how does the half-life read?
Answer: Its half-life is 1.44 min.

Question: With `CC(=O)c1cccc(-c2csc(N3CCC(C(N)=O)CC3)n2)c1` as the molecule, how does the half-life read?
Answer: Its half-life is 2.21 min.

Question: Which half-life does the source give for `Cc1ccc(C(=O)N2CCc3c(nc4cc(-c5ccccc5)[nH]n4c3=O)C2)cn1` here?
Answer: Its half-life is over 30 min.

Question: Which half-life does the source give for `CC(C)CNC(=O)c1cn2cc(-c3ccccc3)sc2n1` here?
Answer: Its half-life is over 30 min.

Question: For `Cc1cc(C)nc(NC(=S)N2CCN(c3ccc(F)cc3F)CC2)c1`, which half-life is on record?
Answer: The half-life was over 30 min.

Question: Which half-life does the source give for `Fc1cc(F)cc(Nc2nc(-c3ccncc3)nc3ccccc23)c1` here?
Answer: The half-life was 15 min.

Question: With `COc1ccc(O)c2c(=O)c3c(OC)cc4c(c3oc12)C1C=COC1O4` (stereo not given) as the molecule, how does the half-life read?
Answer: The half-life was 2.79 min.

Question: Which half-life does the source give for `Cc1cnc(SCc2ccccn2)nc1C1CCCN(C(=O)c2scc3c2CCCC3)C1` (stereo not given) here?
Answer: The half-life was 1.01 min.

Question: Which half-life does the source give for `Nc1nc(N)c2c(OCC3CCN(Cc4ccccc4F)CC3)cccc2n1` here?
Answer: The half-life was over 30 min.

Question: With `N#Cc1cc(-c2nc(Nc3ccc(F)c(F)c3)c3ccccc3n2)ccn1` as the molecule, how does the half-life read?
Answer: The half-life was over 30 min.

Question: Which half-life does the source give for `CCOc1ccc(CCNC(=O)c2cc3cccnc3n2Cc2cccc(C)c2)cc1OCC` here?
Answer: Its half-life is 1.7 min.

Question: With `O=C(NCC1CCOCC1)C1CC(=O)N(c2n[nH]c3cc(Br)ccc23)C1` (stereo not given) as the molecule, how does the half-life read?
Answer: Its half-life is over 30 min.

Question: Which half-life does the source give for `COc1ccc2nc(C)cc(Nc3ccc(Cl)c(Cl)c3)c2c1` here?
Answer: Its half-life is 15.5 min.

Question: For `C[C@H]1CN(C(=O)c2nn(C)c3ccccc23)C[C@@H]1c1nc(-c2ccncc2)no1`, which half-life is on record?
Answer: The half-life was 5.01 min.

Question: Which half-life does the source give for `C#CCNC(=O)c1nc(-c2cccnc2)c2ccccn12` here?
Answer: Its half-life is 14.8 min.

Question: For `Cc1cnc(CNc2nc(-c3cccc(NS(C)(=O)=O)c3)nc3ccccc23)cn1`, which half-life is on record?
Answer: Its half-life is 21 min.

Question: Which half-life does the source give for `COc1ccc(-n2nc(C)c([C@@H]3C=C[C@@H](NCc4ccc(N(C)C)cc4)C3)c2C)cc1` here?
Answer: The half-life was 2.69 min.

Question: For `O=C(O)c1cnc(-c2ccc(F)cc2)nc1-c1ccncc1`, which half-life is on record?
Answer: The half-life was over 30 min.

Question: Which half-life does the source give for `O=C(Nc1ccc(N2CCC(N3CCCCC3)CC2)c(C(=O)O)c1)c1ccc(Br)cc1` here?
Answer: Its half-life is over 30 min.

Question: With `Brc1ccc(-c2csc(N3CCCCC3)n2)cc1` as the molecule, how does the half-life read?
Answer: Its half-life is 3.45 min.

Question: Which half-life does the source give for `O=C(NC1CC1)c1ccc(CSCc2ccccc2Cl)o1` here?
Answer: The half-life was 1.74 min.

Question: For `Cc1cc(CNC(=O)c2ccc3c(c2)n(CC2CC2)c(=O)n3C2CCCCC2)on1`, which half-life is on record?
Answer: Its half-life is 12.4 min.

Question: With `COc1ccc(-c2nc(CS(=O)CC(=O)N3CCC4(CC3)OCCO4)c(C)o2)cc1` (stereo not given) as the molecule, how does the half-life read?
Answer: Its half-life is over 30 min.

Question: With `COc1ccc(C)cc1NS(=O)(=O)c1ccc(-c2cnc(C3CC3)o2)cc1` as the molecule, how does the half-life read?
Answer: Its half-life is 3.38 min.

Question: For `Nc1c(S(=O)(=O)c2cccs2)c2nc3ccccc3nc2n1Cc1ccccc1`, which half-life is on record?
Answer: The half-life was 1.27 min.

Question: Which half-life does the source give for `NCC1CCC(C(=O)Oc2ccc(CCC(=O)O)cc2)CC1` (stereo not given) here?
Answer: Its half-life is over 30 min.
